Source: patent US7923441B2, “Enhancement of activity and/or duration of action of soft anti-inflammatory steroids for topical or other local application” (priority 2003, dated 2011)

What was measured:
[1] = test system: forearm of a human volunteer; assay: Human vasoconstriction (blanching) testing; type: in vivo; conditions: for effect on the vasoconstrictor activity of loteprednol etabonate: co-applied, 1:5 molar ratio loteprednol etabonate:enhancer, especially at the lower concentrations; for AUC (sum of the individual vasoconstriction scores through 36 hours): compound alone; for vasoconstriction activity: tested alone
Procedure: Test compounds at varying mM concentrations as noted below were dissolved in ethanol/propylene glycol (9/1) solution, and 20 μL of the mixtures were applied to filter paper discs, 0.7 cm in diameter. After ethanol evaporation, each disc was attached to waterproof adhesive tape, then applied to the forearm of a human volunteer and left in place for 4 hours. Groups of 8 forearms were tested at each concentration. The intensity of vasoconstriction was judged at 2, 4, 6, 8, 10, 12, 18, 24 and 36 hours after removal of the discs.
The grading scale for the vasoconstriction activity was as follows: 0, normal skin; 1, slight pallor of indistinct outline; 2, pallor with at least two corners outlined; 3, even pallor with a clear outline of the application sites; 4, very intense pallor. The scores were totaled at each concentration at each time after removal to give a total score at each time interval and an overall total for each concentration. The higher the total score, the greater the blanching or anti-inflammatory effect.

receptor = target: T1, receptor (Rattus norvegicus, UniProt P06536); conditions: medium containing 10^−5M cortienic acid as competitor; cited from earlier work
T1 sequence (P06536 1-795): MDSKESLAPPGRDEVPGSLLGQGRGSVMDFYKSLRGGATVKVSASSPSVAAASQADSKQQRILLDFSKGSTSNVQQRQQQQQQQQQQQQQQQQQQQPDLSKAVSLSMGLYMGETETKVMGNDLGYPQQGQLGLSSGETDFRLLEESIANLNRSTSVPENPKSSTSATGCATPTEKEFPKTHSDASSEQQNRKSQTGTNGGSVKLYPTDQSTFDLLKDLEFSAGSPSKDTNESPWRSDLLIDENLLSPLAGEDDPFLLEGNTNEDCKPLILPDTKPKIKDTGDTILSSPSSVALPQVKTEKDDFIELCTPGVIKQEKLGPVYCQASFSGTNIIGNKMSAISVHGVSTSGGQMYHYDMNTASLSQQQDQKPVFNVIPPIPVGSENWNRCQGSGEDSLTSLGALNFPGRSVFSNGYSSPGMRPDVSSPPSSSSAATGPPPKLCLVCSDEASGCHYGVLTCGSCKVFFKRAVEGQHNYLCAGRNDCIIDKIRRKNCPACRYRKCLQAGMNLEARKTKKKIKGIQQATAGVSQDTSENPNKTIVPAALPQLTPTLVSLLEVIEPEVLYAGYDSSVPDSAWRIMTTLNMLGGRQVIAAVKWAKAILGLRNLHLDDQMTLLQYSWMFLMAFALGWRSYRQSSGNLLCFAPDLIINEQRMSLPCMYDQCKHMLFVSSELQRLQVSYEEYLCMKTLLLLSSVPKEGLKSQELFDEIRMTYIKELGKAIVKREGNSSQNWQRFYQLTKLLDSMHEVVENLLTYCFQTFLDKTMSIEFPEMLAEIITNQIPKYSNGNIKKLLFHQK

[2] = test system: forearms of human volunteers; assay: Further human vasoconstriction testing; type: in vivo; conditions: for effect on the vasoconstriction activity of BEM-17V: BEM-17V 0.1 mM; for effect on the vasoconstriction activity of BEM-17V / effect on the vasoconstriction activity of LE: enhancer 0.1-0.5 mM; for effect on the vasoconstriction activity of LE: LE 0.1 mM; for synergism with LE: LE:enhancer ratios 1:1, 1:2, 1:3, 1:4 and 1:5; for AUC (sum of the individual vasoconstriction scores through 24 hours): steroid 0.1 mM alone
Procedure: The resultant LE and BEM-17V solutions were then mixed (1:1) with vehicle only, or with the Δ^1-CA or Δ^1-MeCA solutions, so that LE solutions (0.1 mM) and BEM-17V solutions (0.1 mM) containing various concentrations of Δ^1-CA (0 to 0.5 mM) or Δ^1-MeCA (0 to 0.5 mM) were obtained. The resultant mixtures (20 μl) were loaded onto circular patches (6.5 mm diameter) that were attached to a water impervious adhesive film (3M). After the evaporation of ethanol, the patches and film were applied to the forearms of human volunteers for 4 hours. […] The grading scale was as follows: 0, normal skin; 1, slight pallor; 2, pallor with at least two corners outlined; 3, even pallor with a clear outline of the application sites; 4, very intense pallor. […] As before, an overall total for each concentration was then obtained.

[3] = control (0 mM) of the Δ^1-CA series
[4] = control (0 mM) of the Δ^1-MeCA series

| Molecule | effect on the vasoconstrictor activity of loteprednol etabonate [1] | AUC (sum of the individual vasoconstriction scores through 36 hours) ([1]; 0.5 mM) | AUC (sum of the individual vasoconstriction scores through 36 hours) ([1]; 2.5 mM) | AUC (sum of the individual vasoconstriction scores through 36 hours) ([1]; 5 mM) | AUC (sum of the individual vasoconstriction scores through 36 hours) ([1]; 25 mM) | AUC (sum of the individual vasoconstriction scores through 36 hours) ([1]; 50 mM) | vasoconstriction activity [1] | intrinsic activity in receptor binding studies (receptor) | effect on the vasoconstriction activity of BEM-17V [2] | effect on the vasoconstriction activity of LE [2] | synergism with LE [2] | AUC (sum of the individual vasoconstriction scores through 24 hours) [2, 3] | AUC (sum of the individual vasoconstriction scores through 24 hours) [2, 4] | also measured |
| --- | --- | --- | --- | --- | --- | --- | --- | --- | --- | --- | --- | --- | --- | --- |
| CC12C=CC(=O)C=C1CCC1C2C(O)CC2(C)C1CC[C@]2(O)C(=O)O (stereo partly drawn) [Δ^1-Cortienic Acid, 11β,17α-dihydroxyandrosta-1,4-dien-3-one-17β-carboxylic acid] | significantly enhanced | 0 | 0 | 0 | 0 | 0 | neither Δ^1-cortienic acid nor Δ^1-cortienic acid methyl ester had any vasoconstriction activity | inactive | no activity-increasing effect | increased the vasoconstriction activity of LE | synergistic results | – | – | – |
| CCOC(=O)O[C@]1(C(=O)OCCl)CC[C@H]2[C@@H]3CCC4=CC(=O)C=C[C@]4(C)[C@H]3[C@@H](O)C[C@@]21C [Loteprednol Etabonate, chloromethyl 17α-ethoxycarbonyloxy-11β-hydroxyandrosta-1,4-dien-3-one-17β-carboxylate, reference compound] | – | 39 | – | 117 | – | – | significant activity | – | – | – | – | 99 | 114 | AUC (sum of the individual vasoconstriction scores through 36 hours) ([1]; 0.1 mM, 20 μL on disc, 4 h application, 8 forearms): 9; AUC (sum of the individual vasoconstriction scores through 36 hours) ([1]; 1 mM): 90; AUC (sum of the individual vasoconstriction scores through 36 hours) ([1]; 10 mM): 122 |
| chloromethyl 17α-ethoxycarbonyloxy-11β-hydroxyandrosta-1,4-dien-3-one-17β-carboxylate [Loteprednol Etabonate, reference compound] | – | – | – | – | – | – | – | intrinsically active | – | – | – | – | – | – |
| CCOC(=O)OC1(C(=O)O)CCC2C3CCC4=CC(=O)C=CC4(C)C3C(O)CC21C (stereo not drawn) [the corresponding 17α-ethyl carbonate, 17α-ethoxycarbonyloxy-11β-hydroxyandrost-1,4-dien-3-one-17β-carboxylic acid] | – | – | – | – | – | – | – | inactive | – | – | – | – | – | – |
| COC(=O)[C@@]1(O)CCC2C3CCC4=CC(=O)C=CC4(C)C3C(O)CC21C (stereo partly drawn) [Δ^1-Cortienic Acid Methyl Ester, methyl 11β,17α-dihydroxyandrosta-1,4-dien-3-one-17β-carboxylate] | significantly enhanced | 0 | 0 | 0 | 0 | 0 | neither Δ^1-cortienic acid nor Δ^1-cortienic acid methyl ester had any vasoconstriction activity | – | no activity-increasing effect | increased the vasoconstriction activity of LE | synergistic results | – | – | – |
| betamethasone 17-valerate [Betamethasone Valerate, reference compound] | – | – | – | – | – | – | – | – | – | – | – | 107 | 112 | – |
